Source: article PMC13210772, “Dual FLT3/MAPK14 Proteolysis-Targeting Chimera (PROTAC) Induces Potent Acute Myeloid Leukemia Cell Death” (Pharmaceuticals, 2026)

Assays:
MV4-11 = system: MV4-11; set-up: method as in PMID 30427680, PMID 34959180, PMID 34694800, PMID 36332882, PMID 38655686; conditions: reported FLT3 PROTACs, Figure 1; cited from earlier work
MOLM-14 = system: MOLM-14; set-up: method as in PMID 36518702; conditions: reported FLT3 PROTAC, Figure 1; cited from earlier work
MAPK14 [1] = biological target: T1, MAPK14 (Homo sapiens, UniProt Q16539); test: MAPK14 degradation, immunoblot in leukemia cells; format: cell-based; set-up: endogenous in cells; host or cells: K562, RS4-11, MV4-11, MOLM-13 (A17); MV4-11 (A20); conditions: K562, RS4-11, MV4-11 and MOLM-13 cells; 50 nM MA191, 24 h
MAPK14 [2] = biological target: T1, MAPK14; test: Phosphorylation of MAPK14, immunoblot in MV4-11 cells; format: cell-based; set-up: endogenous in cells; host or cells: K562, RS4-11, MV4-11, MOLM-13 (A17); MV4-11 (A20)
FLT3-ITD [3] = test: KINOMEscan binding assay
Method: Binding to FLT3-ITD was determined using the KINOMEscan^TM assay (Eurofins DiscoverX Corporation, San Diego, CA, USA)
Kinase-tagged T7 phage strains were prepared in an E. coli host derived from the BL21 strain. E. coli were grown to log-phase and infected with T7 phage and incubated with shaking at 32 °C until lysis. The lysates were centrifuged and filtered to remove cell debris. The remaining kinases were produced in HEK-293 cells and subsequently tagged with DNA for qPCR detection. […] The liganded beads were blocked with excess biotin and washed with blocking buffer (SeaBlock (Pierce), 1% BSA, 0.05% Tween 20, 1 mM DTT) to remove unbound ligand and to reduce non-specific binding. […] The compounds were then diluted directly into the assays such that the final concentration of DMSO was 0.9%. All reactions performed in polypropylene 384-well plate. Each was a final volume of 0.02 mL. […] The kinase concentration in the eluates was measured by qPCR.

FLT3-ITD [4] = biological target: T2, FLT3-ITD (Homo sapiens, UniProt P36888, INS600HVDFREYEYD); test: FLT3-ITD degradation, immunoblot in MV4-11 cells; conditions: MV4-11 cells, 50 nM, 24 h
T2 sequence (P36888 with tags, fused parts or gaps INS600HVDFREYEYD): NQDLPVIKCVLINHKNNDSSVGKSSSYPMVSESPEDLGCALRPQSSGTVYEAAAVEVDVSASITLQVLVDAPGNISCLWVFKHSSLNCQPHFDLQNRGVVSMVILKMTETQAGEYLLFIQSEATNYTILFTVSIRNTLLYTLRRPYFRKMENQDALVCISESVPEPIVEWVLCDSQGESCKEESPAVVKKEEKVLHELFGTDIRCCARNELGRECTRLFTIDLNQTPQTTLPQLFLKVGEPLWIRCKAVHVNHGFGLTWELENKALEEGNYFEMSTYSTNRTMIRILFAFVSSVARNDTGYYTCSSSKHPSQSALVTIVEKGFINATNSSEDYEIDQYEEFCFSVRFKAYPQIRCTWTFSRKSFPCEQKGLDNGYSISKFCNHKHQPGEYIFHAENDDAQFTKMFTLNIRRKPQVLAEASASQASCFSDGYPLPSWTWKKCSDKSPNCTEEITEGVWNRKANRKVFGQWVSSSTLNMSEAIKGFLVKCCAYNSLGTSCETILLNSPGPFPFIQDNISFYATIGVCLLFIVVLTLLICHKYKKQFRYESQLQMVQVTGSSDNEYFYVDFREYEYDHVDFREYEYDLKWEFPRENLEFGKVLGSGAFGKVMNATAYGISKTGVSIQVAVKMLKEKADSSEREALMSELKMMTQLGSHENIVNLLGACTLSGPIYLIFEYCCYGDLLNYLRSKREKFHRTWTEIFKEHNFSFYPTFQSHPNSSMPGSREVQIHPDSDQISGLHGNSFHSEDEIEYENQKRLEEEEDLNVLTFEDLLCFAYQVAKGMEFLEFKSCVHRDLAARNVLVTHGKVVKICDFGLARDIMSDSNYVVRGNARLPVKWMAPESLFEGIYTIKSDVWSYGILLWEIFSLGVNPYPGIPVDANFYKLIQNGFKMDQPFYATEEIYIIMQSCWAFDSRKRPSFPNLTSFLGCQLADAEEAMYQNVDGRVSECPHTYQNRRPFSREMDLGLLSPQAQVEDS

FLT3-ITD [5] = biological target: T2, FLT3-ITD; test: Phosphorylation of FLT3-ITD, immunoblot in MV4-11 cells; format: cell-based; set-up: We treated MV4-11 cells with the synthesized degraders of FLT3; endogenous in cells; host or cells: MV4-11
Text: We aimed to delineate if the FLT3 inhibitor part of MA191 acts as a MAPK14 inhibitor in MV4-11 cells. We used the phosphorylation of FLT3-ITD and the phosphorylation of MAPK14 as markers for their activation. […] This finding is consistent with the detection of MAPK14 in the kinase selectivity profiling approach (Figure 3; MAPK14 is termed p38α therein).
(§1) Figure 7 Targeting MAPK14 augments anti-leukemic effects of an inhibition of FLT3-ITD. (a) The graphs show the mRNA levels of MAPK14 in leukemia cells and normal blood cells. […] All immunoblots show data from at least two independent repetitions. (c) Model for how inhibition of various signaling pathways affects AML cells (red, cytoplasm, blue, nucleus).

HL-60 = system: HL-60; set-up: method as in PMID 36332882; conditions: reported FLT3 PROTAC, Figure 1; cited from earlier work
caspase-3 = test: Caspase-3 cleavage, immunoblot in MV4-11 cells; format: cell-based, human
Text: The usefulness of a combined inhibition of FLT3-ITD and MAPK14 through depletion may also be effective against leukemia stem cells that require cytokines signaling through MAPK14 [48]. Further studies are necessary to test this idea.
as §1

T1 sequence (Q16539 2-360 limits assumed): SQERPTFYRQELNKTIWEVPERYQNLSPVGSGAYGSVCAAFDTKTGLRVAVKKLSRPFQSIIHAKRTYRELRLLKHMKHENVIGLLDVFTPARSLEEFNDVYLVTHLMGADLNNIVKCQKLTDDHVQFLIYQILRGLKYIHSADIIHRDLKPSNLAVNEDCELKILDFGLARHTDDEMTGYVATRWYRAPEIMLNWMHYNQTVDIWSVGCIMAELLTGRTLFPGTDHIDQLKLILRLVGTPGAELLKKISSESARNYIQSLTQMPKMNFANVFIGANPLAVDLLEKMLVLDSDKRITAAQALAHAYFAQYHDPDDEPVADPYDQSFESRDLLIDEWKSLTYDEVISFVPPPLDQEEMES

Q: With CCc1nc(C(N)=O)c(Nc2ccc(N3CCC(N4CCN(CC5CCN(C(=O)CCOCCOCCNc6cccc7c6C(=O)N(C6CCC(=O)NC6=O)C7=O)CC5)CC4)CC3)c(OC)c2)nc1NC1CCOCC1 (centres unmarked) [CRBN(FLT3)-8] as the compound, how does the IC50 (MV4-11) read?
A: 0.9 nM

Q: And the IC50 (MOLM-14)?
A: 2.8 nM

Q: What does the source list for Cc1ncsc1-c1ccc([C@H](C)NC(=O)[C@H]2C[C@H](O)CN2C(=O)[C@@H](NC(=O)[C@H]2CC[C@H](C(=O)N3CCN(CCNC(=O)c4cc(Oc5ccc(NC(=O)Nc6cc(C(C)(C)C)on6)cc5)ccn4)CC3)CC2)C(C)(C)C)cc1 [MA225, 4-(4-(3-(5-(tert-Butyl)isoxazol-3-yl)ureido)phenoxy)-N-(2-(4-(trans-4-(((S)-1-((2R,4S)-4-hydroxy-2-(((S)-1-(4-(4-methylthiazol-5-yl)phenyl)ethyl)carbamoyl)pyrrolidin-1-yl)-3,3-dimethyl-1-oxobutan-2-yl)carbamoyl)cyclohexanecarbonyl)piperazin-1-yl)ethyl)picolinamide]?
A: MAPK14 protein level, immunoblot (MAPK14 [1]): did not reduce the levels of FLT3-ITD and MAPK14; phosphorylated MAPK14 (p-MAPK14) (MAPK14 [2]): weak inhibition of phosphorylated MAPK14; % FLT3-ITD Binding at 1 µM (FLT3-ITD [3]): 97 ± 2%; % FLT3-ITD Degradation at 50 nM (FLT3-ITD [4]): No effect; FLT3-ITD degradation (FLT3-ITD [4]): did not reduce the levels of FLT3-ITD and MAPK14; phosphorylation of FLT3-ITD (FLT3-ITD [5]): inhibited the phosphorylation of FLT3-ITD

Q: For Cc1ncsc1-c1ccc(CNC(=O)[C@@H]2C[C@@H](O)CN2C(=O)[C@@H](NC(=O)COCCOCCNC(=O)c2c(C)[nH]c(/C=C3\C(=O)Nc4ccc(F)cc43)c2C)C(C)(C)C)cc1 [PROTAC5], which IC50 (HL-60) is on record?
A: 2900 ± 1500 nM

Q: With Cc1ccc(-n2nc(C(C)(C)C)cc2NC(=O)Nc2ccc(OCCN3CCOCC3)c3ccccc23)cc1 [doramapimod, reference compound] as the compound, how does the caspase-3 cleavage (caspase-3) read?
A: did not induce caspase-3 cleavage

Q: What about the “phosphorylation of FLT3-ITD” value (FLT3-ITD [5]) of the same compound?
A: did not affect FLT3-ITD and its activity
